Data reported in the NIST ThermoML archive (doi:10.1021/je5009334).

Experiment: xn = mol fraction of the nth substance listed
Settings: 101 kPa, Liquid; for speed of sound: Sing-around technique in a fixed-path interferometer; for mass density: Vibrating tube method

CCC(O)CO (stereo not given) [1,2-butanediol] + CCC(C)O
Settings | mass density [kg/m3] | speed of sound [m/s]
298.15 K, x1 = 0.1 | 821.98 | 1231
298.15 K, x1 = 0.2 | 841.211 | 1250.6
298.15 K, x1 = 0.3 | 860.512 | 1270.9
298.15 K, x1 = 0.4 | 879.912 | 1292.2
298.15 K, x1 = 0.5 | 899.493 | 1315.5
298.15 K, x1 = 0.6 | 919.721 | 1340.2
298.15 K, x1 = 0.7 | 939.207 | 1365.7
298.15 K, x1 = 0.8 | 959.168 | 1393.3
298.15 K, x1 = 0.9 | 978.763 | 1423.1
298.15 K, x1 = 1 | 998.509 | 1452.6
303.15 K, x1 = 0.1 | 817.802 | 1213.1
303.15 K, x1 = 0.2 | 837.068 | 1233.5
303.15 K, x1 = 0.3 | 856.416 | 1253.8
303.15 K, x1 = 0.4 | 875.848 | 1275.5
303.15 K, x1 = 0.5 | 895.477 | 1299.1
303.15 K, x1 = 0.6 | 915.764 | 1324.6
303.15 K, x1 = 0.7 | 935.294 | 1350
303.15 K, x1 = 0.8 | 955.308 | 1378.1
303.15 K, x1 = 0.9 | 974.958 | 1408.3
303.15 K, x1 = 1 | 994.759 | 1438.2
308.15 K, x1 = 0.1 | 813.551 | 1195.3
308.15 K, x1 = 0.2 | 832.862 | 1216
308.15 K, x1 = 0.3 | 852.256 | 1236.8
308.15 K, x1 = 0.4 | 871.737 | 1258.8
308.15 K, x1 = 0.5 | 891.419 | 1282.9
308.15 K, x1 = 0.6 | 911.761 | 1308.7
308.15 K, x1 = 0.7 | 931.345 | 1334.5
308.15 K, x1 = 0.8 | 951.414 | 1362.8
308.15 K, x1 = 0.9 | 971.12 | 1393.4
308.15 K, x1 = 1 | 990.971 | 1423.6
313.15 K, x1 = 0.1 | 809.205 | 1177.3
313.15 K, x1 = 0.2 | 828.579 | 1198.2
313.15 K, x1 = 0.3 | 848.033 | 1219.7
313.15 K, x1 = 0.4 | 867.576 | 1242.2
313.15 K, x1 = 0.5 | 887.316 | 1266.7
313.15 K, x1 = 0.6 | 907.718 | 1292.9
313.15 K, x1 = 0.7 | 927.356 | 1319
313.15 K, x1 = 0.8 | 947.483 | 1347.7
313.15 K, x1 = 0.9 | 967.241 | 1378.5
313.15 K, x1 = 1 | 987.152 | 1409.1
318.15 K, x1 = 0.1 | 804.796 | 1159.3
318.15 K, x1 = 0.2 | 824.244 | 1180.7
318.15 K, x1 = 0.3 | 843.762 | 1202.6
318.15 K, x1 = 0.4 | 863.365 | 1225.5
318.15 K, x1 = 0.5 | 883.169 | 1250.5
318.15 K, x1 = 0.6 | 903.63 | 1277
318.15 K, x1 = 0.7 | 923.329 | 1303.5
318.15 K, x1 = 0.8 | 943.516 | 1332.5
318.15 K, x1 = 0.9 | 963.332 | 1363.6
318.15 K, x1 = 1 | 983.297 | 1394.5
323.15 K, x1 = 0.1 | 800.305 | 1141.5
323.15 K, x1 = 0.2 | 819.834 | 1163.1
323.15 K, x1 = 0.3 | 839.427 | 1185.5
323.15 K, x1 = 0.4 | 859.1 | 1208.9
323.15 K, x1 = 0.5 | 878.969 | 1234.3
323.15 K, x1 = 0.6 | 899.488 | 1260.8
323.15 K, x1 = 0.7 | 919.266 | 1288.4
323.15 K, x1 = 0.8 | 939.516 | 1317.6
323.15 K, x1 = 0.9 | 959.384 | 1348.7
323.15 K, x1 = 1 | 979.406 | 1379.9
